# Test results published in ChEMBL document CHEMBL1697681, “Predicting phospholipidosis using machine learning” (Mol Pharm, 2010).
# Tested on: Phospholipidosis
# Assay: Literature-mined public compounds from Lowe et al phospholipidosis modelling dataset
row,Compound,Phospholipidosis
1,CCN(CC)CCCC(C)Nc1ccnc2cc(Cl)ccc12 (stereo not drawn) [CHLOROQUINE],Positive
2,CN(C)CCC=C1c2ccccc2CCc2c(Cl)cccc21,Positive
3,N=C(N)c1ccc(/C=C/c2ccc(C(=N)N)cc2)cc1 [STILBAMIDINE],Positive
4,CC(=O)N1CCN(c2ccc(OCC3COC(Cn4ccnc4)(c4ccc(Cl)cc4Cl)O3)cc2)CC1 (stereo not drawn) [KETOCONAZOLE],Positive
5,CN/C(=N/CCSCc1nc[nH]c1C)NC#N [CIMETIDINE],Negative
6,CN1CCN(C(c2ccccc2)c2ccccc2)CC1 [CYCLIZINE],Positive
7,CCN(CC)CCOc1ccc2c(c1)C(=O)c1cc(OCCN(CC)CC)ccc1-2 [TILORONE],Positive
8,C=C1C[C@@H]1C[C@H](N)C(=O)O,Negative
9,CNS(=O)(=O)Cc1ccc2[nH]cc(CCN(C)C)c2c1,Negative
10,CC(CCc1ccccc1)NCC(O)c1ccc(O)c(C(N)=O)c1 (stereo not drawn) [LABETALOL],Positive
11,CCC[C@@H]1C[C@@H](C(=O)N[C@@H]([C@H]2O[C@H](SC)[C@H](O)[C@@H](O)[C@H]2O)[C@H](C)Cl)N(C)C1 [CLINDAMYCIN],Positive
12,CN(C)CCN(Cc1cccs1)c1ccccn1,Negative
13,NCCc1cc(O)c(O)c(O)c1,Positive
14,CC(C)(Oc1ccc(C2CC2(Cl)Cl)cc1)C(=O)O (stereo not drawn) [CIPROFIBRATE],Negative
15,CN[C@@H]1[C@H](O)[C@H](NC)[C@H]2O[C@@]3(O)C(=O)C[C@@H](C)O[C@H]3O[C@@H]2[C@H]1O [SPECTINOMYCIN],Positive
16,Cc1cccc(CN2CCN(C(c3ccccc3)c3ccc(Cl)cc3)CC2)c1 (stereo not drawn) [MECLIZINE],Positive
17,CC(CN1c2ccccc2Sc2ccccc21)N(C)C (stereo not drawn) [PROMETHAZINE],Positive
18,O=C1CC2(CCCC2)CC(=O)N1CCCCN1CCN(c2ncccn2)CC1 [BUSPIRONE],Negative
19,CN(C)CCCN(C)[C@H]1CC[C@H]2[C@@H]3CC=C4C[C@@H](O)CC[C@]4(C)[C@H]3CC[C@]12C [AZACOSTEROL],Positive
20,CN(C)[C@@H]1C(O)=C(C(=O)NCN2CCCC2)C(=O)[C@@]2(O)C(O)=C3C(=O)c4c(O)cccc4[C@@](C)(O)[C@H]3C[C@@H]12 [ROLITETRACYCLINE],Negative
21,COc1cc([C@@H]2c3cc4c(cc3[C@@H](O[C@@H]3O[C@@H]5CO[C@@H](C)O[C@H]5[C@H](O)[C@H]3O)[C@H]3COC(=O)[C@H]23)OCO4)cc(OC)c1O [ETOPOSIDE],Negative

row,Compound,Phospholipidosis
1,CN1CCN(C2=Nc3cc(Cl)ccc3N(C)n3cccc32)CC1,Positive
2,CN1CCN(C(c2ccccc2)c2ccc(Cl)cc2)CC1 (stereo not drawn) [CHLORCYCLIZINE],Positive
3,CC1(C)C(=O)NC(=O)N1CC(COc1ccc(-c2ccc(OC(F)(F)F)cc2)cc1)NC=O (stereo not drawn),Negative
4,CC(C)OC(=O)C(C)(C)Oc1ccc(C(=O)c2ccc(Cl)cc2)cc1 [FENOFIBRATE],Negative
5,Clc1ccccc1CNC[C@H]1CC[C@H](CNCc2ccccc2Cl)CC1,Positive
6,CC1COc2c(N3CCN(C)CC3)c(F)cc3c(=O)c(C(=O)O)cn1c23 (stereo not drawn) [OFLOXACIN],Negative
7,C1CCC(C(CC2CCCCN2)C2CCCCC2)CC1 (stereo not drawn) [PERHEXILINE],Positive
8,OCCOCCN1CCN(C(c2ccccc2)c2ccc(Cl)cc2)CC1 (stereo not drawn) [HYDROXYZINE],Positive
9,CCCCc1oc2ccccc2c1C(=O)c1cc(I)c(OCCN(CC)CC)c(I)c1 [AMIODARONE],Positive
10,CN1[C@@H]2CC[C@H]1C[C@@H](OC(=O)C(CO)c1ccccc1)C2 (stereo partly drawn) [ATROPINE],Positive
11,CN1CCN(C2=Nc3cc(Cl)ccc3Nc3ccccc32)CC1 [CLOZAPINE],Positive
12,CN(C)CCC=C1c2ccccc2C=Cc2c(Cl)cccc21,Positive
13,CC(=N)S [THIOACETAMIDE],Negative
14,CCCC[C@@H]1CC(=O)[C@]2(O)O[C@@H]3[C@@H](NC)[C@@H](O)[C@@H](NC)[C@H](O)[C@H]3O[C@@H]2O1.O=S(=O)(O)O,Positive
15,CCN[C@@H]1C[C@H](N)[C@@H](O[C@H]2OC(CN)=CC[C@H]2N)[C@H](O)[C@H]1O[C@H]1OC[C@](C)(O)[C@H](NC)[C@H]1O [NETILMICIN],Positive
16,Nc1c(Br)cc(Br)cc1CN[C@H]1CC[C@H](O)CC1 [AMBROXOL],Positive
17,CN(C)CCCN1c2ccccc2CCc2ccc(Cl)cc21 [CLOMIPRAMINE],Positive
18,CC(=O)N(O)CCCCCNC(=O)CCC(=O)N(O)CCCCCNC(=O)CCC(=O)N(O)CCCCCN [DEFEROXAMINE],Negative
19,O=C(O)Cc1ccccc1Nc1c(Cl)cccc1Cl [DICLOFENAC],Negative
20,CCCN[C@@H]1[C@H](C)[C@@H](O)[C@](C)(O)[C@@H](CC)OC(=O)[C@H](C)[C@@H](O[C@H]2C[C@@](C)(OC)[C@@H](O)[C@H](C)O2)[C@H](C)[C@@H](O[C@@H]2O[C@H](C)C[C@H](N(C)C)[C@H]2O)[C@](C)(O)C[C@H]1C,Positive
21,NC(=O)NO [HYDROXYUREA],Negative

row,Compound,Phospholipidosis
1,CC/C(=C(\c1ccccc1)c1ccc(OCCN(C)C)cc1)c1ccccc1 [TAMOXIFEN],Positive
2,COCCCC/C(=N\OCCN)c1ccc(C(F)(F)F)cc1 [FLUVOXAMINE],Positive
3,CC(C)NCC(O)c1ccc(NS(C)(=O)=O)cc1 (stereo not drawn) [SOTALOL],Negative
4,NC12CC3CC(CC(C3)C1)C2 [AMANTADINE],Positive
5,CCN(CC)CCn1nc2c3c(c(C)ccc31)Sc1cc(Cl)ccc1-2,Positive
6,C[n+]1ccc(-c2cc[n+](C)cc2)cc1,Positive
7,COc1cc2c(cc1OC)C(=O)C(CC1CCN(Cc3ccccc3)CC1)C2 (stereo not drawn) [DONEPEZIL],Negative
8,CC(C)(N)Cc1ccccc1 [PHENTERMINE],Positive
9,NS(=O)(=O)c1cc(C(=O)O)c(NCc2ccco2)cc1Cl [FUROSEMIDE],Negative
10,NCC[C@H](O)C(=O)N[C@@H]1C[C@H](N)[C@@H](O[C@H]2O[C@H](CN)[C@@H](O)[C@H](O)[C@H]2O)[C@H](O)[C@H]1O[C@H]1O[C@H](CO)[C@@H](O)[C@H](N)[C@H]1O [AMIKACIN],Positive
11,CCN(CC)CC(=O)Nc1c(C)cccc1C [LIDOCAINE],Positive
12,CN(C)CCC=C1c2ccccc2CCc2ccccc21 [AMITRIPTYLINE],Positive
13,Cc1cn([C@H]2C[C@H](N=[N+]=[N-])[C@@H](CO)O2)c(=O)[nH]c1=O [ZIDOVUDINE],Negative
14,O=C(NCC1CCCCN1)c1cc(OCC(F)(F)F)ccc1OCC(F)(F)F (stereo not drawn) [FLECAINIDE],Negative
15,CN(C)[C@@H]1C(O)=C(C(N)=O)C(=O)[C@@]2(O)C(O)=C3C(=O)c4c(O)ccc(Cl)c4[C@@](C)(O)[C@H]3C[C@@H]12 [CHLORTETRACYCLINE],Negative
16,CC1=C(CC(=O)O)c2cc(F)ccc2/C1=C\c1ccc([S+](C)[O-])cc1 (stereo not drawn),Negative
17,NC(=O)N1c2ccccc2C=Cc2ccccc21 [CARBAMAZEPINE],Negative
18,CN1CCCCC1CCN1c2ccccc2Sc2ccc([S+](C)[O-])cc21 (stereo not drawn) [MESORIDAZINE],Positive
19,CCC(c1ccc(OCCN(CC)CC)cc1)C(CC)c1ccc(OCCN(CC)CC)cc1 (stereo not drawn) [CORALGIL],Positive
20,CN(C)C/C=C(/c1ccc(Br)cc1)c1cccnc1 [ZIMELDINE],Positive
21,CC(CN(C)C)CN1c2ccccc2CCc2ccccc21 (stereo not drawn) [TRIMIPRAMINE],Positive

row,Compound,Phospholipidosis
1,CC[C@H]1OC(=O)[C@H](C)[C@@H](O[C@H]2C[C@@](C)(OC)[C@@H](O)[C@H](C)O2)[C@H](C)[C@@H](O[C@@H]2O[C@H](C)C[C@H](N(C)C)[C@H]2O)[C@](C)(O)C[C@@H](C)CN(C)[C@H](C)[C@@H](O)[C@]1(C)O [AZITHROMYCIN],Positive
2,CCC1(c2ccccc2)C(=O)NC(=O)NC1=O [PHENOBARBITAL],Negative
3,O=C(N[C@H](CO)[C@H](O)c1ccc([N+](=O)[O-])cc1)C(Cl)Cl [CHLORAMPHENICOL],Positive
4,CN1CCN(CCCCN2C(=O)CN(/N=C/c3ccc(-c4ccc(Cl)cc4)o3)C2=O)CC1.Cl.Cl [AZIMILIDE DIHYDROCHLORIDE],Positive
5,NC(=O)c1ccccc1 [BENZAMIDE],Positive
6,CCN(CC)C(=O)[C@@H]1C=C2c3cccc4[nH]cc(c34)C[C@H]2N(C)C1 [LYSERGIDE],Positive
7,Cn1nnc2c(C(N)=O)ncn2c1=O [TEMOZOLOMIDE],Negative
8,CC(C)NCC(O)COc1cccc2ccccc12 (stereo not drawn) [PROPRANOLOL],Positive
9,C=C[C@H]1C[N@@]2CC[C@H]1C[C@@H]2[C@@H](O)c1ccnc2ccc(OC)cc12 [QUINIDINE],Positive
10,CCOC(=O)NC(C)(C)Cc1ccc(Cl)cc1 [CLOFOREX],Negative
11,FC(F)(F)c1ccc(-c2ccc(OCCN3CCCC3)cc2)cc1 [BOXIDINE],Positive
12,CCNC(C)Cc1cccc(C(F)(F)F)c1 (stereo not drawn) [FENFLURAMINE],Positive
13,CN1C(=O)CN=C(c2ccccc2)c2cc(Cl)ccc21 [DIAZEPAM],Negative
14,CCC[C@@H](NC(=O)N1C(=O)C(CC)(CC)[C@@H]1Oc1ccc(C(=O)N2CCN(C)CC2)cc1)c1ccc2c(c1)OCO2,Positive
15,CCN1CC(CCN2CCOCC2)C(c2ccccc2)(c2ccccc2)C1=O (stereo not drawn) [DOXAPRAM],Negative
16,S=C=Nc1cccc2ccccc12 [1-NAPHTHYLISOTHIOCYANATE],Negative
17,Nc1c2c(nc3ccccc13)CCCC2 [TACRINE],Negative
18,CC1(C)NC(=O)N(C[C@@H](COc2ccc(-c3ccc(OC(F)(F)F)cc3)cc2)N(O)C=O)C1=O,Negative
19,O=C(O)c1cc(-c2ccc(F)cc2F)ccc1O [DIFLUNISAL],Negative
20,CC(NC(C)(C)C)C(=O)c1cccc(Cl)c1 (stereo not drawn) [BUPROPION],Negative
